Target: T1, human Prostaglandin D Synthase (GST2) (Homo sapiens, UniProt O60760)
T1 construct: the open reading frame of human Prostaglandin D Synthase was amplified from cDNA; made in house; host or cells: E. coli TOP10F'
Test: Homogeneous biochemical assay of human Prostaglandin D Synthase (GST2) based on its glutathion-S-transferase activity (GSH conjugation to monochlorobimane, fluorescence)
Conditions: given beside the compound name in Examples 1 to 167; read-out: Potency Range (GST2 IC50)
Method in brief: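 N-His-tagged human PGD synthase from E. coli, assayed via its GST activity: GSH conjugation to monochlorobimane in 50 mM MES/KOH pH 6.1, 0.7 mM GSH, 2 mM MgCl2. Compounds at final picomolar to triple-digit micromolar concentrations.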

T1 sequence (O60760 whole entry): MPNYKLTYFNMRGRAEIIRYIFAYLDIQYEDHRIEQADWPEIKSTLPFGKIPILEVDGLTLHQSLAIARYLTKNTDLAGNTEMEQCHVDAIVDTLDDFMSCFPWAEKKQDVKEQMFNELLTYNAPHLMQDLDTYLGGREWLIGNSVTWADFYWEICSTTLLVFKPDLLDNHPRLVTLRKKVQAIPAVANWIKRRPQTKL

Row | IC50 [nM] | SMILES
1 | 101 to 1000 | O=C(Nc1ccc(F)nc1)c1ccc(NC(=O)N2CCN(C(=O)c3cccc(F)c3)CC2)cc1 [Compound 103, 4-(3-Fluoro-benzoyl)-piperazine-1-carboxylic acid [4-(6-fluoro-pyridin-3-ylcarbamoyl)-phenyl]-amide]
2 | 101 to 1000 | NC(=O)c1ccc(NC(=O)N2CCN(C(=O)c3cccc(F)c3)CC2)cc1F [Compound 104, 4-(3-Fluoro-benzoyl)-piperazine-1-carboxylic acid (4-carbamoyl-3-fluoro-phenyl)-amide]
3 | 101 to 1000 | Nc1cccc(NC(=O)N2CCN(C(=O)c3cccc(F)c3)CC2)c1 [Compound 106, 4-(3-Fluoro-benzoyl)-piperazine-1-carboxylic acid (3-amino-phenyl)-amide]
4 | 11 to 100 | O=C(Nc1cccc(NC(=O)N2CCN(C(=O)c3cccc(F)c3)CC2)c1)c1ccccn1 [Compound 107, 4-(3-Fluoro-benzoyl)-piperazine-1-carboxylic acid {3-[(pyridine-2-carbonyl)-amino]-phenyl}-amide]
5 | 101 to 1000 | O=C(Nc1cccc(NC(=O)N2CCN(C(=O)c3cccc(F)c3)CC2)c1)c1cccc[n+]1[O-] [Compound 108, 4-(3-Fluoro-benzoyl)-piperazine-1-carboxylic acid {3-[(1-oxy-pyridine-2-carbonyl)-amino]-phenyl}-amide]
6 | 101 to 1000 | O=C(Nc1cccc(NC(=O)N2CCN(C(=O)c3cccc(F)c3)CC2)c1)c1cc[n+]([O-])cc1 [Compound 110, 4-(3-Fluoro-benzoyl)-piperazine-1-carboxylic acid {3-[(1-oxy-pyridine-4-carbonyl)-amino]-phenyl}-amide]
7 | 101 to 1000 | O=C(Nc1cccc(NC(=O)N2CCN(C(=O)c3cccc(F)c3)CC2)c1)c1ccc(F)nc1 [Compound 111, 4-(3-Fluoro-benzoyl)-piperazine-1-carboxylic acid {3-[(6-fluoro-pyridine-3-carbonyl)-amino]-phenyl}-amide]
8 | 101 to 1000 | Nc1ccc(NC(=O)N2CCN(C(=O)c3cccc(F)c3)CC2)cc1 [Compound 112, 4-(3-Fluoro-benzoyl)-piperazine-1-carboxylic acid (4-amino-phenyl)-amide]
9 | 101 to 1000 | Nc1ccc(NC(=O)N2CCN(C(=O)c3cc(F)ccc3F)CC2)cc1 [Compound 113, 4-(2,5-Difluoro-benzoyl)-piperazine-1-carboxylic acid (4-amino-phenyl)-amide]
10 | 11 to 100 | O=C(Nc1ccc(NC(=O)N2CCN(C(=O)c3cccc(F)c3)CC2)cc1)c1ccccn1 [Compound 114, 4-(3-Fluoro-benzoyl)-piperazine-1-carboxylic acid {4-[(pyridine-2-carbonyl)-amino]-phenyl}-amide]
11 | 11 to 100 | O=C(Nc1ccc(NC(=O)N2CCN(C(=O)c3cccc(F)c3)CC2)cc1)c1cccc[n+]1[O-] [Compound 115, 4-(3-Fluoro-benzoyl)-piperazine-1-carboxylic acid {4-[(1-oxy-pyridine-2-carbonyl)-amino]-phenyl}-amide]
12 | 11 to 100 | O=C(Nc1ccc(NC(=O)N2CCN(C(=O)c3cccc(F)c3)CC2)cc1)c1ccc[n+]([O-])c1 [Compound 116, 4-(3-Fluoro-benzoyl)-piperazine-1-carboxylic acid {4-[(1-oxy-pyridine-3-carbonyl)-amino]-phenyl}-amide]
13 | 101 to 1000 | O=C(Nc1ccc(NC(=O)N2CCN(C(=O)c3cccc(F)c3)CC2)cc1)c1ccc(F)nc1 [Compound 117, 4-(3-Fluoro-benzoyl)-piperazine-1-carboxylic acid {4-[(6-fluoro-pyridine-3-carbonyl)-amino]-phenyl}-amide]
14 | 11 to 100 | O=C(Nc1ccc(NC(=O)N2CCN(C(=O)c3cc(F)ccc3F)CC2)cc1)c1cccc[n+]1[O-] [Compound 118, 4-(2,5-Difluoro-benzoyl)-piperazine-1-carboxylic acid {4-[(1-oxy-pyridine-2-carbonyl)-amino]-phenyl}-amide]
15 | 11 to 100 | O=C(Nc1ccc(NC(=O)N2CCN(C(=O)c3cc(F)ccc3F)CC2)cc1)c1ccc[n+]([O-])c1 [Compound 119, 4-(2,5-Difluoro-benzoyl)-piperazine-1-carboxylic acid {4-[(1-oxy-pyridine-3-carbonyl)-amino]-phenyl}-amide]
16 | 11 to 100 | O=C(Nc1ccc(NC(=O)N2CCN(C(=O)c3cccc(F)c3)CC2)cc1)c1ccc(F)cc1 [Compound 120, 4-(3-Fluoro-benzoyl)-piperazine-1-carboxylic acid [4-(4-fluoro-benzoylamino)-phenyl]-amide]
17 | 101 to 1000 | CC(C)C(=O)Nc1ccc(NC(=O)N2CCN(C(=O)c3cccc(F)c3)CC2)cc1 [Compound 121, 4-(3-Fluoro-benzoyl)-piperazine-1-carboxylic acid (4-isobutyrylamino-phenyl)-amide]
18 | 101 to 1000 | O=C(Nc1ccc(NC(=O)N2CCN(C(=O)c3cccc(F)c3)CC2)cc1)c1cccnc1 [Compound 122, 4-(3-Fluoro-benzoyl)-piperazine-1-carboxylic acid {4-[(pyridine-3-carbonyl)-amino]-phenyl}-amide]

Row | IC50 [nM] | SMILES
19 | 101 to 1000 | O=C(Nc1ccc(NC(=O)N2CCN(C(=O)c3cccc(F)c3)CC2)cc1)C1CCOCC1 [Compound 124, 4-(3-Fluoro-benzoyl)-piperazine-1-carboxylic acid {4-[(tetrahydro-pyran-4-carbonyl)-amino]-phenyl}-amide]
20 | 11 to 100 | O=C(Nc1ccc(NS(=O)(=O)c2ccccc2)cc1)N1CCN(C(=O)c2cccc(F)c2)CC1 [Compound 125, 4-(3-Fluoro-benzoyl)-piperazine-1-carboxylic acid (4-benzenesulfonylamino-phenyl)-amide]
21 | 11 to 100 | O=C(Nc1ccc(NS(=O)(=O)C2CC2)cc1)N1CCN(C(=O)c2cccc(F)c2)CC1 [Compound 127, 4-(3-Fluoro-benzoyl)-piperazine-1-carboxylic acid (4-cyclopropanesulfonylamino-phenyl)-amide]
22 | 11 to 100 | O=C(Nc1ccc(NS(=O)(=O)c2ccc(F)cc2)cc1)N1CCN(C(=O)c2cccc(F)c2)CC1 [Compound 128, 4-(3-Fluoro-benzoyl)-piperazine-1-carboxylic acid [4-(4-fluoro-benzenesulfonylamino)-phenyl]-amide]
23 | 11 to 100 | CS(=O)(=O)N(c1ccc(NC(=O)N2CCN(C(=O)c3cccc(F)c3)CC2)cc1)S(C)(=O)=O [Compound 129, N-{4-[bis(methylsulfonyl)amino]phenyl}-4-(3-fluorobenzoyl)piperazine-1-carboxamide]
24 | 101 to 1000 | O=C(Nc1cccc(NS(=O)(=O)c2ccc(F)cc2)c1)N1CCN(C(=O)c2cccc(F)c2)CC1 [Compound 130, 4-(3-Fluoro-benzoyl)-piperazine-1-carboxylic acid [3-(4-fluoro-benzenesulfonylamino)-phenyl]-amide]
25 | 101 to 1000 | O=C(Nc1cccc(NS(=O)(=O)C2CC2)c1)N1CCN(C(=O)c2cccc(F)c2)CC1 [Compound 131, 4-(3-Fluoro-benzoyl)-piperazine-1-carboxylic acid (3-cyclopropanesulfonylamino-phenyl)-amide]
26 | 101 to 1000 | O=C(Nc1ccc(NS(=O)(=O)C2CC2)cc1)N1CCN(C(=O)c2cc(F)ccc2F)CC1 [Compound 132, 4-(2,5-Difluoro-benzoyl)-piperazine-1-carboxylic acid (4-cyclopropanesulfonylamino-phenyl)-amide]
27 | 101 to 1000 | CS(=O)(=O)Nc1ccc(NC(=O)N2CCN(C(=O)c3cc(F)ccc3F)CC2)cc1 [Compound 133, 4-(2,5-Difluoro-benzoyl)-piperazine-1-carboxylic acid (4-methanesulfonylamino-phenyl)-amide]
28 | 101 to 1000 | O=C(Nc1ccc([N+](=O)[O-])c(F)c1)N1CCN(C(=O)c2cccc(F)c2)CC1 [Compound 134, 4-(3-Fluoro-benzoyl)-piperazine-1-carboxylic acid (3-fluoro-4-nitro-phenyl)-amide]
29 | 11 to 100 | O=C(Nc1ccc(-c2nnn[nH]2)cc1)N1CCN(C(=O)c2cccc(F)c2)CC1 [Compound 135, 4-(3-Fluoro-benzoyl)-piperazine-1-carboxylic acid [4-(1H-tetrazol-5-yl)-phenyl]-amide]
30 | 11 to 100 | Nc1ccc2nc(NC(=O)N3CCN(C(=O)c4cccc(F)c4)CC3)sc2c1 [Compound 136, 4-(3-Fluoro-benzoyl)-piperazine-1-carboxylic acid (6-amino-benzothiazol-2-yl)-amide]
31 | 11 to 100 | O=C(Nc1nc2ccc(NS(=O)(=O)C3CC3)cc2s1)N1CCN(C(=O)c2cccc(F)c2)CC1 [Compound 137, 4-(3-Fluoro-benzoyl)-piperazine-1-carboxylic acid (6-cyclopropanesulfonylamino-benzothiazol-2-yl)-amide]
32 | 11 to 100 | O=C(O)c1ccc2nc(NC(=O)N3CCN(C(=O)c4cccc(F)c4)CC3)sc2c1 [Compound 138, 2-{[4-(3-Fluoro-benzoyl)-piperazine-1-carbonyl]-amino}-benzothiazole-6-carboxylic acid]
33 | 11 to 100 | O=C(Nc1nc2ccc(C(=O)N3CCOCC3)cc2s1)N1CCN(C(=O)c2cccc(F)c2)CC1 [Compound 139, 4-(3-Fluoro-benzoyl)-piperazine-1-carboxylic acid [6-(morpholine-4-carbonyl)-benzothiazol-2-yl]-amide]
34 | 11 to 100 | O=C(Nc1ccc2nc(NC(=O)N3CCN(C(=O)c4cccc(F)c4)CC3)sc2c1)c1ccccn1 [Compound 140, 4-(3-Fluoro-benzoyl)-piperazine-1-carboxylic acid {6-[(pyridine-2-carbonyl)-amino]-benzothiazol-2-yl}-amide]
35 | 11 to 100 | NC(=O)c1ccc2nc(NC(=O)N3CCN(C(=O)c4cccc(F)c4)CC3)sc2c1 [Compound 141, 2-{[4-(3-Fluoro-benzoyl)-piperazine-1-carbonyl]-amino}-benzothiazole-6-carboxylic acid amide]
36 | 101 to 1000 | CC(C)c1noc(-c2ccc(NC(=O)N3CCN(C(=O)c4cccc(F)c4)CC3)cc2)n1 [Compound 142, 4-(3-Fluoro-benzoyl)-piperazine-1-carboxylic acid [4-(3-isopropyl-[1,2,4]oxadiazol-5-yl)-phenyl]-amide]

Reference: patent US20100234377A1 (priority 2007, published 2010)
